Experimental data reported in patent US10168342B2, “Lipid probes and uses thereof” (THE SCRIPPS RESEARCH INSTITUTE, priority 2015, dated 2019).

Legend:
Assay in all cases: isoTOP-ABPP mapping of AEA-DA-modified peptides in Neuro2a cells
Type in all cases: cell-based
[1] = molecular target: T1, AEA-DA-modified peptides in Neuro2a cells (Mus musculus, UniProt Q9CZN7); details: probe 100 μM, 12 replicates
T1 construct: endogenous in cells; host or cells: Neuro2a

[2] = molecular target: T2, AEA-DA-modified peptides in Neuro2a cells (Mus musculus, UniProt Q9CPQ8); details: AEA-DA-modified peptide ATP5L Q9CPQ8 36-55, SEQ ID NO 19; probe 100 μM, 12 replicates
T2 construct: endogenous in cells; host or cells: Neuro2a

[3] = molecular target: T3, AEA-DA-modified peptides in Neuro2a cells (Mus musculus, UniProt P81117); details: AEA-DA-modified peptide NUCB2 P81117 60-73, SEQ ID NO 72; probe 100 μM, 12 replicates
T3 construct: endogenous in cells; host or cells: Neuro2a

[4] = molecular target: T4, AEA-DA-modified peptides in Neuro2a cells (Mus musculus, UniProt P42208); details: AEA-DA-modified peptide SEPT2 P42208 78-92, SEQ ID NO 98; probe 100 μM, 12 replicates
T4 construct: endogenous in cells; host or cells: Neuro2a

[5] = molecular target: T5, AEA-DA-modified peptides in Neuro2a cells (Mus musculus, UniProt Q8K411); details: AEA-DA-modified peptide PITRM1 Q8K411 364-386, SEQ ID NO 87; probe 100 μM, 12 replicates
T5 construct: endogenous in cells; host or cells: Neuro2a

[6] = molecular target: T6, AEA-DA-modified peptides in Neuro2a cells (Mus musculus, UniProt Q8VC28); details: AEA-DA-modified peptide AKR1C13 Q8VC28 48-69, SEQ ID NO 7; probe 100 μM, 12 replicates
T6 construct: endogenous in cells; host or cells: Neuro2a

[7] = molecular target: T7, AEA-DA-modified peptides in Neuro2a cells (Mus musculus, UniProt P10649); details: AEA-DA-modified peptide GSTM1 P10649 109-123, SEQ ID NO 44; probe 100 μM, 12 replicates
T7 construct: endogenous in cells; host or cells: Neuro2a

[8] = molecular target: T8, AEA-DA-modified peptides in Neuro2a cells (Mus musculus, UniProt P34884); details: AEA-DA-modified peptide MIF P34884 13-38, SEQ ID NO 60; probe 100 μM, 12 replicates
T8 construct: endogenous in cells; host or cells: Neuro2a

[9] = molecular target: T9, AEA-DA-modified peptides in Neuro2a cells (Mus musculus, UniProt P61750); details: probe 100 μM, 12 replicates
T9 construct: endogenous in cells; host or cells: Neuro2a

[10] = molecular target: T10, AEA-DA-modified peptides in Neuro2a cells (Mus musculus, UniProt Q8BMK4); details: AEA-DA-modified peptide CKAP4 Q8BMK4 292-307, SEQ ID NO 23; probe 100 μM, 12 replicates
T10 construct: endogenous in cells; host or cells: Neuro2a

[11] = molecular target: T11, AEA-DA-modified peptides in Neuro2a cells (Mus musculus, UniProt Q9CQV8); details: AEA-DA-modified peptide YWHAB Q9CQV8 196-225, SEQ ID NO 120; probe 100 μM, 12 replicates
T11 construct: endogenous in cells; host or cells: Neuro2a
T11 sequence (Q9CQV8 whole entry): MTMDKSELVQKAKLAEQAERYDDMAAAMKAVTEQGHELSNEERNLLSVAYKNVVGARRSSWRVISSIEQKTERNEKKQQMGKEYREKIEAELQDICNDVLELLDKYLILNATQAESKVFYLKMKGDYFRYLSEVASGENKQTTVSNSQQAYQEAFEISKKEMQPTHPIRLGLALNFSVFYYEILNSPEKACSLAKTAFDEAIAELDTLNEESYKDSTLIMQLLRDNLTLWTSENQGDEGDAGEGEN

T1 sequence (Q9CZN7 30-504): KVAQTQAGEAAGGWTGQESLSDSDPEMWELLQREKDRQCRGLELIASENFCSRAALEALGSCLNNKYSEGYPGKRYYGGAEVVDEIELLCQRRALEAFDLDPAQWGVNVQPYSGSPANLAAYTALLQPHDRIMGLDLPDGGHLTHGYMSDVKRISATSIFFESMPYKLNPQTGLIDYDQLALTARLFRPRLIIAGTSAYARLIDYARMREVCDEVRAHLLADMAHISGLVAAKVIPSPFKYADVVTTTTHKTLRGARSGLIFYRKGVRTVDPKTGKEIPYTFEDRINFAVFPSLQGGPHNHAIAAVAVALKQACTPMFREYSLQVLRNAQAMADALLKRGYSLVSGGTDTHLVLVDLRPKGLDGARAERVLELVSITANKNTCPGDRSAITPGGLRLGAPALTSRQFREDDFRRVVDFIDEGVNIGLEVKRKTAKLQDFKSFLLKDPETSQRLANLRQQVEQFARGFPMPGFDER
T9 sequence (P61750 whole entry): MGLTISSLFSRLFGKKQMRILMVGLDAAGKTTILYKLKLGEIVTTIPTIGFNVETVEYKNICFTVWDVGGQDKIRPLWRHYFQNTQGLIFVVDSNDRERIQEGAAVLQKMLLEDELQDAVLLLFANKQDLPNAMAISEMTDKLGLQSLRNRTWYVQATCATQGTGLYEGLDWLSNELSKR
T6 sequence (Q8VC28 whole entry): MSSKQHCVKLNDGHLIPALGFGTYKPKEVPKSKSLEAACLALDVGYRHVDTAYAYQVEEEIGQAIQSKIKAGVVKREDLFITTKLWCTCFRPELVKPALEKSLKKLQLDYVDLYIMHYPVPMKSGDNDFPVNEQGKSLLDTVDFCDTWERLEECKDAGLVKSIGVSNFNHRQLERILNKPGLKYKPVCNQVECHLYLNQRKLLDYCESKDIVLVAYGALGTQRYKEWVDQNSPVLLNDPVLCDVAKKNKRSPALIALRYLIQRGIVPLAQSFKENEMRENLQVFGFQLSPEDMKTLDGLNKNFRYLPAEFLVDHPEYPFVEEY
T7 sequence (P10649 whole entry): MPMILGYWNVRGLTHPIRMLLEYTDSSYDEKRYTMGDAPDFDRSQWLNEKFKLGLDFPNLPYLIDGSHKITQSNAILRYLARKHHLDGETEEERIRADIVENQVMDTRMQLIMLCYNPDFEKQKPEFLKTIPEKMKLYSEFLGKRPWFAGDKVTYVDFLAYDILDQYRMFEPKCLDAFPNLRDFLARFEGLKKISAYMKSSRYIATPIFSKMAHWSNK
T4 sequence (P42208 whole entry): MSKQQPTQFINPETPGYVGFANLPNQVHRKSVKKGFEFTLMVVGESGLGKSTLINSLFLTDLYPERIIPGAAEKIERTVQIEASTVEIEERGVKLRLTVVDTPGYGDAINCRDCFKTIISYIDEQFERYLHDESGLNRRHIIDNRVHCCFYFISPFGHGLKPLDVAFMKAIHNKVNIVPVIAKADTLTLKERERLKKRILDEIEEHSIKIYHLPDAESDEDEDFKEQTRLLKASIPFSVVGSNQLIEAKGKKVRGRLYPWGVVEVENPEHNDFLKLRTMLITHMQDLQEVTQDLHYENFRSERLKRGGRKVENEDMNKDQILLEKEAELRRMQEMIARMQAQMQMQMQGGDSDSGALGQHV
T5 sequence (Q8K411 16-1036): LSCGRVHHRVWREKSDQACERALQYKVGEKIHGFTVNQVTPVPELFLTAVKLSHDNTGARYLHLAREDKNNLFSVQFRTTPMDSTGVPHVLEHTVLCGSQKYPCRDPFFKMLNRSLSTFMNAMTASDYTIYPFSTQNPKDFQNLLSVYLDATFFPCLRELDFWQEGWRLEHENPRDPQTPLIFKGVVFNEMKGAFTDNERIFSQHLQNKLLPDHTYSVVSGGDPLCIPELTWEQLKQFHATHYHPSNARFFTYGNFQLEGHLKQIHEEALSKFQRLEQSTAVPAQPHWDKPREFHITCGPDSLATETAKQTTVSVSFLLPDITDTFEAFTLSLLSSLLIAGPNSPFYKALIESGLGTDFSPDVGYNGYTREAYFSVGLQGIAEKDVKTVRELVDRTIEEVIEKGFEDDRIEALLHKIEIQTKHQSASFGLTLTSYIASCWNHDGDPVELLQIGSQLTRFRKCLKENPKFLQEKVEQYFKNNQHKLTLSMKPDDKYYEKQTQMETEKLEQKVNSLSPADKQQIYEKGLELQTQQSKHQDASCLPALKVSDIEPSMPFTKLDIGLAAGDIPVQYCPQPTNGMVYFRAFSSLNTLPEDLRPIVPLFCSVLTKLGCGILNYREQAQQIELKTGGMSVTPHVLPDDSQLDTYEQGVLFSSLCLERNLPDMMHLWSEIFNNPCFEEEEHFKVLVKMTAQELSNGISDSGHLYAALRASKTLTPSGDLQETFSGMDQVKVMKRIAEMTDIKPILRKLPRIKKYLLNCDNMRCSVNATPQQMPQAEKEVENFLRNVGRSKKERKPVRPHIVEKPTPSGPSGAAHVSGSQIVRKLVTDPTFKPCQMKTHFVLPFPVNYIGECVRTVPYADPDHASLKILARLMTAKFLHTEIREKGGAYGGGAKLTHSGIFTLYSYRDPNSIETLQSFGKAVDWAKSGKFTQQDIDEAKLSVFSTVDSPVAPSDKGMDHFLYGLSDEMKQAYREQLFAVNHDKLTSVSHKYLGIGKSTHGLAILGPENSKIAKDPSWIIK
T3 sequence (P81117 25-420): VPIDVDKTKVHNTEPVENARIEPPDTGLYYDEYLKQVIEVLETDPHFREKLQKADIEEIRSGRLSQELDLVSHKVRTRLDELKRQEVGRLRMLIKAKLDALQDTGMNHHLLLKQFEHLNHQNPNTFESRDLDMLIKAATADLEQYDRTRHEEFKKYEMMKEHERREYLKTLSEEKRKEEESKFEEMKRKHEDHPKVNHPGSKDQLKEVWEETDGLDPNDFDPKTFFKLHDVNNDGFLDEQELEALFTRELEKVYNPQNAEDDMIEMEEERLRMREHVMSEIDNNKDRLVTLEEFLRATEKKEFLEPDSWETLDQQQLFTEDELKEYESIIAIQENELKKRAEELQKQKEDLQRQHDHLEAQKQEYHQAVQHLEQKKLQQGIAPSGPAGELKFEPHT
T10 sequence (Q8BMK4 whole entry): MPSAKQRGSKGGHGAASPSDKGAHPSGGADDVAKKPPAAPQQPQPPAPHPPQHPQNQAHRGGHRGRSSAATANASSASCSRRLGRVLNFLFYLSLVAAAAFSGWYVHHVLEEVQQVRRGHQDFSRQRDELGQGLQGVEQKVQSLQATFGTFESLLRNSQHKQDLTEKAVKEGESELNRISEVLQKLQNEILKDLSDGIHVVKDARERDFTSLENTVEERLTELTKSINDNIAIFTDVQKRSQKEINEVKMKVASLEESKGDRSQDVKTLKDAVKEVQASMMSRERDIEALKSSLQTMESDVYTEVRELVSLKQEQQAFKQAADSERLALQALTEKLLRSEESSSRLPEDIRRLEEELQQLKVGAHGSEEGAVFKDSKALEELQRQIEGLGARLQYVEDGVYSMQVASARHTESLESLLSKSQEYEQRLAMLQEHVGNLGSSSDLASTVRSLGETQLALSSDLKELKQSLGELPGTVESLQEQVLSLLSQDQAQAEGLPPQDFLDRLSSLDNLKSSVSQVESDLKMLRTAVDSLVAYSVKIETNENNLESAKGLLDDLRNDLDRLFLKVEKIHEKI
T2 sequence (Q9CPQ8 whole entry): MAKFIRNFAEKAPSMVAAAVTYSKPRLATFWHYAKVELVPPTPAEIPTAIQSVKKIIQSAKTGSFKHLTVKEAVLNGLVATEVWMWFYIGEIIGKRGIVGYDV

`C#CCCCC1(CC/C=C\C/C=C\C/C=C\CCCC(=O)NCCO)N=N1` [AEA-DA, (5Z,8Z,11Z)-N-(2-hydroxyethyl)-14-(3-(pent-4-yn-1-yl)-3H-diazirin-3-yl)tetradeca-5,8,11-trienamide] gave a Times observed ([1]; AEA-DA-modified peptide SHMT2 Q9CZN7 105-122, SEQ ID NO 101) of 9, a Times observed ([1]; AEA-DA-modified peptide SHMT2 Q9CZN7 161-182, SEQ ID NO 102) of 3 and a Times observed [2] of 3. The Times observed [3] was 4, the Times observed [4] was 2 and the Times observed [5] was 2. It also gave a Times observed [6] of 4, a Times observed [7] of 4 and a Times observed [8] of 4. The Times observed ([9]; AEA-DA-modified peptide ARF4 P61750 39-60, SEQ ID NO 13) was 9, the Times observed ([9]; AEA-DA-modified peptide ARF4 P61750 110-128, SEQ ID NO 12) was 2 and the Times observed [10] was 7. The Times observed [11] was 8.
